Experimental data from patent US20220356186A1, “PERK INHIBITING PYRROLOPYRIMIDINE COMPOUNDS” (HiberCell, Inc., priority 2019, published 2022).

Experiments:
[1] = test system: GFP-eIF2α in HEK293 cells; test: PERK cellular assay, TR-FRET in HEK293-EGFP-eIF2a cells after tunicamycin-induced ER stress; format: cell-based; details: HEK293-EGFP-eIF2a cells, tunicamycin 2 hours; read-out: Cellular eIF2α IC50
Outline: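 Compounds were added 30 min before a 2 h tunicamycin ([…]) challenge of lentivirally made GFP-eIF2α HEK293 cells, 5000/well; lysate TR-FRET ratio was the read-out.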

select kinases = test: KINOMEscan in vitro competition binding assay for select kinases
[2] = biological target: T1, EIF2AK3 (PERK) catalytic domain (amino acids 536-1116) (Homo sapiens, UniProt Q9NZJ5); test: PERK in vitro activity assay (isolated), TR-FRET kinase assay; format: biochemical; details: isolated PERK enzyme, 1.5 μM ATP; read-out: Biochemical IC50
T1 construct: EIF2AK3 (PERK) catalytic domain (amino acids 536-1116)
T1 sequence (Q9NZJ5 536-1116): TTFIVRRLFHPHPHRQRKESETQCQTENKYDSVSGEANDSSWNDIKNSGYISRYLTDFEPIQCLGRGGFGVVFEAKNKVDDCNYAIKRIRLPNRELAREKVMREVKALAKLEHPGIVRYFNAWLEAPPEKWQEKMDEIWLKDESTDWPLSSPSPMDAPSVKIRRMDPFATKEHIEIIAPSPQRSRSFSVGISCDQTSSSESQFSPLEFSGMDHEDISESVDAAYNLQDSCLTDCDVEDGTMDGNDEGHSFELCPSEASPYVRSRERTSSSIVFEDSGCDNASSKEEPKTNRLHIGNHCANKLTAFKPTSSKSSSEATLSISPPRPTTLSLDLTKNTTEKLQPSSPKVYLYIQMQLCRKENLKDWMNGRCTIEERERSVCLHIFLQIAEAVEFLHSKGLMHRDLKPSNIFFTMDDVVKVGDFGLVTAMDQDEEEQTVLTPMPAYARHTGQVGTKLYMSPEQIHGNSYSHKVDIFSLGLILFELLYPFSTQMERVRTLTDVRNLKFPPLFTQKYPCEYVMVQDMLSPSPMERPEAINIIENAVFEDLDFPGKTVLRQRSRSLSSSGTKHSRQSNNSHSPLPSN
Outline: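 TR-FRET read-out: after EDTA stop (10 mM final), Tb-labelled phospho-eIF2a antibody (2 nM) for 90 min; IC50 via 4-parameter nonlinear fit. Reaction: PERK aa 536-1116, GFP-eIF2a 100-200 nM, HEPES pH 7.5 with MgCl2/EGTA/Brij-35, 45 min, room temperature, started by enzyme.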

## Cc1cc(NC(=O)C(O)c2cccc(F)c2)ccc1-c1cn(C)c2ncnc(N)c12 (centres unmarked) [Example 9, N-(4-(4-amino-7-methyl-7H-pyrrolo[2,3-d]pyrimidin-5-yl)-3-methylphenyl)-2-(3-fluorophenyl)-2-hydroxyacetamide]
[1]
  IC50: 0.001 to 0.025 µM
Select kinases; kinase AURKB
  KINOMEscan competition binding, inhibition of AURKB: Inhibition (“Inhibition” refers to greater than 50% inhibition)
Select kinases; kinase AXL
  KINOMEscan competition binding, inhibition of AXL: No inhibition
Select kinases; kinase BLK
  KINOMEscan competition binding, inhibition of BLK: Inhibition (“Inhibition” refers to greater than 50% inhibition)
Select kinases; kinase CAMK4
  KINOMEscan competition binding, inhibition of CAMK4: Inhibition (“Inhibition” refers to greater than 50% inhibition)
Select kinases; kinase CDK8
  KINOMEscan competition binding, inhibition of CDK8: Inhibition (“Inhibition” refers to greater than 50% inhibition)
Select kinases; kinase CDK11
  KINOMEscan competition binding, inhibition of CDK11: Inhibition (“Inhibition” refers to greater than 50% inhibition)
Select kinases; kinase CSF1R
  KINOMEscan competition binding, inhibition of CSF1R: Inhibition (“Inhibition” refers to greater than 50% inhibition)
Select kinases; kinase EIF2AK1
  KINOMEscan competition binding, inhibition of EIF2AK1: Inhibition (“Inhibition” refers to greater than 50% inhibition)
Select kinases; kinase EPHB6
  KINOMEscan competition binding, inhibition of EPHB6: Inhibition (“Inhibition” refers to greater than 50% inhibition)
Select kinases; kinase FLT3
  KINOMEscan competition binding, inhibition of FLT3: Inhibition (“Inhibition” refers to greater than 50% inhibition)
Select kinases; kinase HIPK4
  KINOMEscan competition binding, inhibition of HIPK4: Inhibition (“Inhibition” refers to greater than 50% inhibition)
Select kinases; kinase LOK
  KINOMEscan competition binding, inhibition of LOK: Inhibition (“Inhibition” refers to greater than 50% inhibition)
Select kinases; kinase MAP3K2
  KINOMEscan competition binding, inhibition of MAP3K2: Inhibition (“Inhibition” refers to greater than 50% inhibition)
Select kinases; kinase MAP3K3
  KINOMEscan competition binding, inhibition of MAP3K3: Inhibition (“Inhibition” refers to greater than 50% inhibition)
Select kinases; kinase MAP3K15
  KINOMEscan competition binding, inhibition of MAP3K15: Inhibition (“Inhibition” refers to greater than 50% inhibition)
Select kinases; kinase MEK5
  KINOMEscan competition binding, inhibition of MEK5: Inhibition (“Inhibition” refers to greater than 50% inhibition)
Select kinases; kinase MKNK2
  KINOMEscan competition binding, inhibition of MKNK2: Inhibition (“Inhibition” refers to greater than 50% inhibition)
Select kinases; kinase NEK1
  KINOMEscan competition binding, inhibition of NEK1: Inhibition (“Inhibition” refers to greater than 50% inhibition)
Select kinases; kinase NEK5
  KINOMEscan competition binding, inhibition of NEK5: Inhibition (“Inhibition” refers to greater than 50% inhibition)
Select kinases; kinase PIK3C2B
  KINOMEscan competition binding, inhibition of PIK3C2B: Inhibition (“Inhibition” refers to greater than 50% inhibition)
Select kinases; kinase RIOK2
  KINOMEscan competition binding, inhibition of RIOK2: Inhibition (“Inhibition” refers to greater than 50% inhibition)
Select kinases; kinase RIPK1
  KINOMEscan competition binding, inhibition of RIPK1: No Inhibition (“No Inhibition” refers to less than 50% inhibition)
Select kinases; kinase RIPK2
  KINOMEscan competition binding, inhibition of RIPK2: Inhibition (“Inhibition” refers to greater than 50% inhibition)
Select kinases; kinase RIPK5
  KINOMEscan competition binding, inhibition of RIPK5: Inhibition (“Inhibition” refers to greater than 50% inhibition)
Select kinases; kinase TESK1
  KINOMEscan competition binding, inhibition of TESK1: Inhibition (“Inhibition” refers to greater than 50% inhibition)
Select kinases; kinase TIE2
  KINOMEscan competition binding, inhibition of TIE2: Inhibition (“Inhibition” refers to greater than 50% inhibition)
Select kinases; kinase TRKA
  KINOMEscan competition binding, inhibition of TRKA: Inhibition (“Inhibition” refers to greater than 50% inhibition)
Select kinases; kinase TRKB
  KINOMEscan competition binding, inhibition of TRKB: Inhibition (“Inhibition” refers to greater than 50% inhibition)
Select kinases; kinase TRKC
  KINOMEscan competition binding, inhibition of TRKC: Inhibition (“Inhibition” refers to greater than 50% inhibition)
Select kinases; kinase VRK2
  KINOMEscan competition binding, inhibition of VRK2: Inhibition (“Inhibition” refers to greater than 50% inhibition)
Select kinases; kinase YANK1
  KINOMEscan competition binding, inhibition of YANK1: Inhibition (“Inhibition” refers to greater than 50% inhibition)
Select kinases; kinase YANK2
  KINOMEscan competition binding, inhibition of YANK2: Inhibition (“Inhibition” refers to greater than 50% inhibition)
Select kinases; kinase YSK4
  KINOMEscan competition binding, inhibition of YSK4: Inhibition (“Inhibition” refers to greater than 50% inhibition)
[2]
  IC50: 0.001 to 0.025 µM
